The values that follow come from ChEMBL document CHEMBL5050859, “Gpx4 inhibitors, pharmaceutical compositions thereof, and their use for treating gpx4-mediated diseases” (2021).

In this experiment the test system is Huh-7. In words: Antiproliferative activity against human Huh-7 cells after 24 hrs by Cell Titer Glo assay. It counts as functional, cell-based. The following applies: Huh-7, 24 h. For orientation: In ATP-based viability assays light output follows the ATP content of the culture.

What is called EC50 is the concentration giving half of the maximal effect. Low readings indicate higher potency in that assay, high ones lower potency in that assay. As for `C#CC(=O)N(C1(C(=O)NCc2ccccc2)CCOCC1)C1(c2ccccc2)CC1`, the EC50 was at most 100 nM.

On to `C#CC(=O)N(C1CCC1)C1(C(=O)NCc2ccccc2)CCCC(C(=O)OC)C1` (stereo not drawn), for which the EC50 came to 500 nM. For `C#CC(=O)N(c1ccc2c(cnn2C)c1)C1(C(=O)NCc2ccccc2)CCC(=O)CC1` the value was at most 100 nM; for `C#CC(=O)N(c1cccc2cnn(C)c12)C(C(=O)NCc1ccccc1)c1ccccc1` (stereo not drawn), at most 100 nM; for `C#CC(=O)N(c1ccc2[nH]ncc2c1)C1(C(=O)NCc2ccccc2)CCOCC1`, 100 nM.

In turn, `C#CC(=O)N(CCc1ccccc1)C1(C(=O)NCc2ccccc2)CCCC(C(=O)O)C1` (stereo not drawn) displayed a 50% effective concentration (EC50) of over 10000 nM. Consider `O=C(C#CCO)N(c1cccc(Cl)c1)C1(C(=O)NCc2ccccc2)CCOCC1`, for which the EC50 is over 10000 nM. For `C#CC(=O)N(c1ccc(OC)cc1OC)C1(C(=O)NCc2ccccc2)CCOCC1` the value was at most 100 nM. For the molecule `C#CC(=O)N(c1cccc(C(=O)OC)c1)C(C(=O)NCc1ccccc1)c1cccc(N)c1` (stereo not drawn), the EC50 is at most 100 nM. With `CC#CC(=O)N(c1ccc2c(cnn2C)c1)C1(C(=O)NCc2ccccc2)CCCOC1` (stereo not drawn) the figure was 2000 nM; with `C#CC(=O)N(c1cccc(-c2ccn(C)n2)c1)C1(C(=O)NCc2ccccc2)CCOCC1`, 100 nM; with `C#CC(=O)N(c1ccc2c(c1)C(=O)OC2)C(C(=O)NCc1ccccc1)c1ccccc1` (stereo not drawn), at most 100 nM. On to `CC#CC(=O)N(c1ccc2c(cnn2C)c1)C1(C(=O)NCc2ccccc2)CCOCC1`, for which the EC50 was over 10000 nM. Consider `CC#CC(=O)N(c1ccc(Cl)c(Cl)c1)C(C(=O)NCc1ccccc1)c1ccccc1` (stereo not drawn), for which the EC50 is over 10000 nM. Regarding `C#CC(=O)N(c1cccc2c1OCO2)C1(C(=O)NCc2ccccc2)CCOCC1`, the concentration for a half-maximal effect (EC50) was at most 100 nM. `COc1ccc(N(C(=O)C#CCO)C(C(=O)NCCc2ccccc2)c2cccs2)cc1Cl` (stereo not drawn): the response was half-maximal at 2000 nM (EC50).

`C#CC(=O)N(c1cccn2cnnc12)C(C(=O)NCc1ccccc1)c1ccccc1` (stereo not drawn) showed an EC50 of 100 nM. Turning to `CC#CC(=O)N(c1ccc2c(cnn2C)c1)C1(C(=O)NCc2ccccc2)CCCC(C(=O)OC)C1` (stereo not drawn), the EC50 is over 10000 nM. For `C#CC(=O)N(c1ccn2cnnc2c1)C1(C(=O)NCc2ccccc2)CCOCC1` the value was 500 nM.

`C#CC(=O)N(c1cccc(-c2cc[nH]n2)c1)C1(C(=O)NCc2ccccc2)CCOCC1` came in with a half-maximal effective concentration (EC50) of 100 nM. With `C#CC(=O)N(c1cccc(Cl)c1)C1(C(=O)NCc2ccccc2)CCCC(C(=O)OC)C1` (stereo not drawn) the figure was at most 100 nM. Turning to `Cn1ncc2cc(N(C(=O)C#CCO)C3(C(=O)NCc4ccccc4)CCOCC3)ccc21`, the EC50 was over 10000 nM.

Molecule `C#CC(=O)N(c1ccc(N(C)C)cc1)C1(C(=O)NCc2ccccc2)CCOCC1` had an EC50 of 100 nM.

In turn, `C#CC(=O)N(c1ccc(Cl)cc1)C(C(=O)NCc1ccccc1)c1cccc(N)c1` (stereo not drawn) came in with an EC50 of at most 100 nM.

With `C#CC(=O)N(c1cccc2nonc12)C(C(=O)NCc1ccccc1)c1ccccc1` (stereo not drawn), the EC50 worked out at 100 nM. For `C#CC(=O)N(c1cccc2c1CCC2=O)C1(C(=O)NCc2ccccc2)CCOCC1` the value was at most 100 nM; for `C#CC(=O)N(Cc1cccc(O)c1)C1(C(=O)NCc2ccccc2)CCCC(C(=O)OC)C1` (stereo not drawn), 100 nM. In the case of `C#CC(=O)N(c1cccc2nsnc12)C1(C(=O)NCc2ccccc2)CCOCC1`, the concentration giving a half-maximal response (EC50) is at most 100 nM. As for `C#CC(=O)N(c1cccc(Cl)c1)C(C(=O)NCc1ccc(C#N)cc1)c1ccccc1` (stereo not drawn), the EC50 was at most 100 nM. For the molecule `C#CC(=O)N(c1ccc(C#N)cc1)C(C(=O)NC(C)(C)C)c1ccc(N)cc1` (stereo not drawn), the EC50 is at most 100 nM. On to `C#CC(=O)N(c1cccc(Cl)c1)C1(C(=O)NCS(=O)(=O)c2ccc(C)cc2)CCOCC1`, for which the EC50 was determined as 500 nM. Consider `C#CC(=O)N(c1cc(Cl)ccc1Cl)C(C(=O)NCc1ccccc1)c1ccccc1` (stereo not drawn), for which the EC50 was at most 100 nM.

In the case of `C#CC(=O)N(CCc1ccccc1)C1(C(=O)NCc2ccccc2)CCCC(C(=O)OC)C1` (stereo not drawn), the EC50 is 100 nM. Consider `O=C(C#CCO)N(c1cc(Cl)ccc1Cl)C1(C(=O)NCc2ccccc2)CCOCC1`, for which the EC50 is over 10000 nM. `C#CC(=O)N(c1ccc2nncn2c1)C(C(=O)NCc1ccccc1)c1ccccc1` (stereo not drawn) gave an EC50 of 100 nM. The molecule `C#CC(=O)N(c1ccc(Cl)cc1)C(C(=O)NC(C)(C)C)c1cccc(N)c1` (stereo not drawn) displayed an EC50 of at most 100 nM. `C#CC(=O)N(c1cccc(Cl)c1)C1(C(=O)NCc2ccccc2)CCC(F)(F)CC1` came in with a concentration giving a half-maximal response (EC50) of at most 100 nM.

Consider `C#CC(=O)N(c1ccc2c(cnn2C)c1)C1(C(=O)NCc2ccccc2)CCCC(=O)C1` (stereo not drawn), for which the EC50 was 100 nM. For `C#CC(=O)N(c1cccc(Cl)c1)C1(C(=O)NCc2ccccc2)CCCOC1` (stereo not drawn) the value was at most 100 nM; for `C#CC(=O)N(c1cccc(Cl)c1F)C(C(=O)NCc1ccccc1)c1ccc(N)cc1` (stereo not drawn), at most 100 nM.

`CC#CC(=O)N(c1cccc(Cl)c1)C(C(=O)NCc1ccccc1)c1ccccc1` (stereo not drawn) returned a half-maximal effective concentration (EC50) of over 10000 nM.

Regarding `C#CC(=O)N(c1cccc(Cl)c1)C1(C(=O)NCc2ccccc2)CCCC(=O)C1` (stereo not drawn), the EC50 is at most 100 nM. As to `C#CC(=O)N(c1ccc2c(ccn2C)c1)C1(C(=O)NCc2ccccc2)CCOCC1`, the half-maximal effective concentration (EC50) is at most 100 nM.

`C#CC(=O)N(c1cccc(Cl)c1)C(C(=O)NCc1ccccc1)c1ccncc1` (stereo not drawn) yielded an EC50 of 500 nM. Turning to `C#CC(=O)N(c1cc2c(cc1I)OCO2)C(C(=O)NCc1ccccc1)c1ccccc1` (stereo not drawn), the EC50 is at most 100 nM. As to `C#CC(=O)N(c1ccc2[nH]ccc2c1)C1(C(=O)NCc2ccccc2)CCOCC1`, the EC50 worked out at 2000 nM.

Regarding `C#CC(=O)N(c1ccc2c(c1)OCO2)C1(C(=O)NCc2ccccc2)CCOCC1`, it took 100 nM to reach a half-maximal effect (EC50).

`C#CC(=O)N(c1ccccc1N1CCOCC1)C1(C(=O)NCc2ccccc2)CCOCC1` returned an EC50 of at most 100 nM. `C#CC(=O)N(c1ccc2c(cnn2C)c1)C1(C(=O)NCc2ccccc2)CCOCC1`: the EC50 is at most 100 nM.

On to `C#CC(=O)N(c1cccc(Cl)c1)C1(C(=O)NCc2ccccc2)CCCC(O)C1` (stereo not drawn), for which the concentration giving a half-maximal response (EC50) turned out to be 2000 nM.

`C#CC(=O)N(c1ccc2c(c1)C(=O)OC2)C1(C(=O)NCc2ccccc2)CCOCC1` displayed a concentration for a half-maximal effect (EC50) of at most 100 nM. `C#CC(=O)N(Cc1cc[nH]n1)C1(C(=O)NCc2ccccc2)CCOCC1` yielded a half-maximal effective concentration (EC50) of over 10000 nM. On to `C#CC(=O)N(c1ccc2scnc2c1)C1(C(=O)NCc2ccccc2)CCOCC1`, for which the EC50 is 100 nM. For `C#CC(=O)N(c1ccc2c(cnn2C)c1)C(C(=O)NCc1ccccc1)c1ccccc1` (stereo not drawn) the value was at most 100 nM; for `C#CC(=O)N(c1cccc(Cl)c1)[C@]1(C(=O)NCc2ccccc2)CC[C@@H](O)CC1`, 100 nM; for `C#CC(=O)N(Cc1cccc(O)c1)C1(C(=O)NCc2ccccc2)CCOCC1`, at most 100 nM. Consider `C#CC(=O)N(c1ccc2cnn(C)c2c1)C(C(=O)NCc1ccccc1)c1ccccc1` (stereo not drawn), for which the EC50 is at most 100 nM. `C#CC(=O)N(c1ccc2ncn(C)c2c1)C1(C(=O)NCc2ccccc2)CCOCC1` gave an EC50 of 500 nM. `C#CC(=O)N(c1ccc2c(c1)ncn2C)C1(C(=O)NCc2ccccc2)CCOCC1` registered a 50% effective concentration (EC50) of 500 nM. With `C#CC(=O)N(c1cccc(Cl)c1)C(C(=O)NCc1ccc(F)cc1)c1ccccc1` (stereo not drawn) the figure was at most 100 nM.

Take `C#CC(=O)N(c1cccc(Cl)c1)C(C(=O)NCc1ccccc1F)c1ccccc1` (stereo not drawn): the concentration giving a half-maximal response (EC50) was found to be 100 nM. For `C#CC(=O)N(Cc1cccc(O)c1)C1(C(=O)NCc2ccccc2)CCCC(C(=O)O)C1` (stereo not drawn) the value was over 10000 nM; for `C#CC(=O)N(C1CCC(=O)N(C)C1)C(C(=O)NCc1ccccc1)c1ccccc1` (stereo not drawn), 2000 nM.
